Patent publication US9815802B2, “Herbicidally active N-(1-methyltetrazol-5-yl)benzoic acid amides” (BAYER CROPSCIENCE AKTIENGESELLSCHAFT, priority 2014, dated 2017)

Tests used:
Format in all cases: in vivo
Avena fatua [1] = experiment: Pre-emergence herbicidal action against AVEFA; conditions: dosage 320 g/ha
Description: (§1) Pre-Emergence Herbicidal Action Against Harmful Plants
(§2) Seeds of monocotyledonous and dicotyledonous weed plants and crop plants are laid out in wood-fiber pots in sandy loam and covered with soil. The compounds of the invention, formulated in the form of wettable powders (WP) or as emulsion concentrates (EC), are then applied to the surface of the covering soil in the form of an aqueous suspension or emulsion at a water application rate equating to 600 to 800 I/ha, with addition of 0.2% wetting agent. After the treatment, the pots are placed in a greenhouse and kept under good growth conditions for the trial plants. The damage to the test plants is scored visually after a test period of 3 weeks by comparison with untreated controls (herbicidal activity in percent (%): 100% activity=the plants have died, 0% activity=like control plants). For example, compounds no. 1-001, 1-002, 1-003, 1-004, 1-011, 1-012, 1-021, 1-022, 1-031, 1-032, 1-041, 1-042 and 1-044 at an application rate of 320 g/ha each have at least 80% efficacy against Echinocloa crusgalli, Abutilon theophrasti, Amaranthus retroflexus and Matricaria inodora.

Pharbitis purpureum = experiment: Pre-emergence herbicidal action against PHBPU; conditions: dosage 320 g/ha
Description: as §1, §2

Echinochloa crus galli = experiment: Post-emergence herbicidal action against ECHCG; conditions: dosage 80 g/ha
Method: (§3) Post-Emergence Herbicidal Action Against Harmful Plants Seeds of monocotyledonous and dicotyledonous weed and crop plants are laid out in sandy loam in wood-fiber pots, covered with soil and cultivated in a greenhouse under good growth conditions. 2 to 3 weeks after sowing, the test plants are treated at the one-leaf stage. The compounds of the invention, formulated in the form of wettable powders (WP) or as emulsion concentrates (EC), are then sprayed onto the green parts of the plants in the form of an aqueous suspension or emulsion at a water application rate equating to 600 to 800 I/ha, with addition of 0.2% wetting agent. After the test plants have been left to stand in the greenhouse under optimal growth conditions for about 3 weeks, the action of the preparations is assessed visually in comparison to untreated controls (herbicidal action in percent (%): 100% activity=the plants have died, 0% activity=like control plants).

Setaria viridis [2] = experiment: Post-emergence herbicidal action against SETVI; conditions: dosage 80 g/ha
Method: as §3

Polygonum convolvulus [3] = experiment: Post-emergence herbicidal action against POLCO
Method: as §3

Avena fatua [4] = experiment: Post-emergence herbicidal action against AVEFA
Method: as §3

Alopecurus myosuroides = experiment: Post-emergence herbicidal action against ALOMY
Method: as §3

Polygonum convolvulus [5] = experiment: Pre-emergence herbicidal action against POLCO; conditions: dosage 320 g/ha
Description: as §1, §2

Setaria viridis [6] = experiment: Pre-emergence herbicidal action against SETVI
Description: as §1, §2

Stellaria media = experiment: Pre-emergence herbicidal action against STEME
Description: as §1, §2

Cc1ccc(C(=O)Nc2nnnn2C)c(I)c1S(C)(=O)=O [4-791]
Activity against AVEFA (Avena fatua [1]): 0% | Activity against PHBPU (Pharbitis purpureum): 30%

Cc1ccc(C(=O)Nc2nnnn2C)c([N+](=O)[O-])c1S(C)(=O)=O [drawing 66]
Activity against ECHCG (Echinochloa crus galli; Table U): 0% | Activity against SETVI (Setaria viridis [2]; Table U): 0%

CCc1c(C(=O)Nc2nnnn2C)ccc(C)c1S(C)(=O)=O [drawing 70]
Activity against POLCO (Polygonum convolvulus [3]; Table W, dosage 20 g/ha): 70%

COSc1c(S(C)(=O)=O)ccc(C(=O)Nc2nnnn2C)c1C [drawing 55, reference compound]
Activity against AVEFA (Avena fatua [4]; dosage 5 g/ha): 0% | Activity against ALOMY (Alopecurus myosuroides; dosage 5 g/ha): 0%

Cc1c(C(=O)Nc2nnnn2C)ccc(C(F)(F)F)c1S(C)(=O)=O
Activity against AVEFA (Avena fatua [4]; Table S, dosage 5 g/ha): 0% | Activity against ALOMY (Alopecurus myosuroides; Table S, dosage 5 g/ha): 30%

CCS(=O)(=O)c1c(C)ccc(C(=O)Nc2nnnn2C)c1C [drawing 45]
Activity against AVEFA (Avena fatua [4]; dosage 80 g/ha): 80% | Activity against ALOMY (Alopecurus myosuroides; dosage 80 g/ha): 90%

CCc1c(C(=O)Nc2nnnn2C)ccc(Br)c1SOC [4-503, reference compound]
Activity against PHBPU (Pharbitis purpureum): 50% | Activity against POLCO (Polygonum convolvulus [5]): 60%

CCS(=O)(=O)c1c(C)ccc(C(=O)Nc2nnnn2C)c1[N+](=O)[O-] [reference compound]
Activity against AVEFA (Avena fatua [4]; dosage 80 g/ha): 0% | Activity against ALOMY (Alopecurus myosuroides; dosage 80 g/ha): 10%

COc1c(C(=O)Nc2nnnn2C)ccc(C)c1S(C)(=O)=O [4-811]
Activity against AVEFA (Avena fatua [1]): 60% | Activity against PHBPU (Pharbitis purpureum): 70%

CCOSc1c(CC)ccc(C(=O)Nc2nnnn2C)c1CC [drawing 36]
Activity against PHBPU (Pharbitis purpureum): 100% | Activity against POLCO (Polygonum convolvulus [5]): 100%

CCc1c(C(=O)Nc2nnnn2C)ccc(Cl)c1SOC
Activity against POLCO (Polygonum convolvulus [3]; Table V, dosage 5 g/ha): 20%

COSc1c(C=O)ccc(C(=O)Nc2nnnn2C)c1C
Activity against SETVI (Setaria viridis [6]; dosage 320 g/ha): 0% | Activity against STEME (Stellaria media; dosage 320 g/ha): 0%

CCc1ccc(C(=O)Nc2nnnn2C)c(CC)c1[S+](C)[O-] (stereo not shown) [1-041]
Activity against PHBPU (Pharbitis purpureum): 80% | Activity against POLCO (Polygonum convolvulus [5]): 80%

COSc1c(C)ccc(C(=O)Nc2nnnn2C)c1[N+](=O)[O-] [4-796]
Activity against SETVI (Setaria viridis [6]; dosage 320 g/ha): 0% | Activity against STEME (Stellaria media; dosage 320 g/ha): 50%

CCS(=O)(=O)c1c(C)ccc(C(=O)Nc2nnnn2C)c1I [4-794]
Activity against AVEFA (Avena fatua [1]): 10% | Activity against PHBPU (Pharbitis purpureum): 60%

CCc1c(C(=O)Nc2nnnn2C)ccc(Cl)c1S(C)(=O)=O [drawing 71]
Activity against POLCO (Polygonum convolvulus [3]; Table W, dosage 20 g/ha): 50%

COSc1c(C)ccc(C(=O)Nc2nnnn2C)c1I
Activity against SETVI (Setaria viridis [6]; dosage 320 g/ha): 30% | Activity against STEME (Stellaria media; dosage 320 g/ha): 70%

Cc1c(C(=O)Nc2nnnn2C)ccc(I)c1S(C)(=O)=O
Activity against AVEFA (Avena fatua [4]; Table S, dosage 5 g/ha): 0% | Activity against ALOMY (Alopecurus myosuroides; Table S, dosage 5 g/ha): 20%

CCc1c(C(=O)Nc2nnnn2C)ccc(C(F)(F)F)c1S(=O)(=O)CC
Activity against POLCO (Polygonum convolvulus [3]; Table Y, dosage 20 g/ha): 80%

COSc1c(C)ccc(C(=O)Nc2nnnn2C)c1C [drawing 62]
Activity against ECHCG (Echinochloa crus galli; Table T): 40% | Activity against SETVI (Setaria viridis [2]; Table T): 20%

Cc1c(C(=O)Nc2nnnn2C)ccc(S(C)(=O)=O)c1S(C)(=O)=O [drawing 60]
Activity against AVEFA (Avena fatua [4]; Table S, dosage 5 g/ha): 10% | Activity against ALOMY (Alopecurus myosuroides; Table S, dosage 5 g/ha): 30%

COSc1cccc(C(=O)Nc2nnnn2C)c1C [reference compound]
Activity against AVEFA (Avena fatua [4]; dosage 5 g/ha): 20% | Activity against ALOMY (Alopecurus myosuroides; dosage 5 g/ha): 10%

CCc1c(C(=O)Nc2nnnn2C)ccc(Br)c1SOC [drawing 69]
Activity against POLCO (Polygonum convolvulus [3]; Table V, dosage 5 g/ha): 20%

CCOSc1c(C)ccc(C(=O)Nc2nnnn2C)c1[N+](=O)[O-] [drawing 43, reference compound]
Activity against AVEFA (Avena fatua [4]; dosage 80 g/ha): 0% | Activity against ALOMY (Alopecurus myosuroides; dosage 80 g/ha): 10%

Cc1c(C(=O)Nc2nnnn2C)ccc(Cl)c1S(C)(=O)=O [reference compound]
Activity against AVEFA (Avena fatua [4]; dosage 5 g/ha): 20% | Activity against ALOMY (Alopecurus myosuroides; dosage 5 g/ha): 20%

CCS(=O)(=O)c1c(C)ccc(C(=O)Nc2nnnn2C)c1C [1-004]
Activity against AVEFA (Avena fatua [1]): 90% | Activity against PHBPU (Pharbitis purpureum): 80%

CCc1c(C(=O)Nc2nnnn2C)ccc(Br)c1S(C)(=O)=O
Activity against POLCO (Polygonum convolvulus [3]; Table W, dosage 20 g/ha): 40%

Cc1ccc(C(=O)Nc2nnnn2C)c(C)c1[S+](C)[O-] (stereo not shown) [1-001, 2,4-Dimethyl-3-(methylsulfinyl)-N-(1-methyl-1H-tetrazol-5-yl)benzamide]
Activity against SETVI (Setaria viridis [6]; dosage 320 g/ha): 100% | Activity against STEME (Stellaria media; dosage 320 g/ha): 90%

CCOSc1c(CC)ccc(C(=O)Nc2nnnn2C)c1CC [drawing 73]
Activity against POLCO (Polygonum convolvulus [3]; Table X, dosage 20 g/ha): 60%

CCOSc1c(C)ccc(C(=O)Nc2nnnn2C)c1[N+](=O)[O-] [4-799]
Activity against SETVI (Setaria viridis [6]; dosage 320 g/ha): 0% | Activity against STEME (Stellaria media; dosage 320 g/ha): 70%

CCOSc1c(C)ccc(C(=O)Nc2nnnn2C)c1C
Activity against AVEFA (Avena fatua [4]; dosage 80 g/ha): 100% | Activity against ALOMY (Alopecurus myosuroides; dosage 80 g/ha): 90%

CCc1ccc(C(=O)Nc2nnnn2C)c(C)c1S(C)(=O)=O [drawing 51]
Activity against AVEFA (Avena fatua [4]; dosage 5 g/ha): 80% | Activity against ALOMY (Alopecurus myosuroides; dosage 5 g/ha): 60%

COSc1c(C(C)C)ccc(C(=O)Nc2nnnn2C)c1C
Activity against AVEFA (Avena fatua [4]; dosage 5 g/ha): 40% | Activity against ALOMY (Alopecurus myosuroides; dosage 5 g/ha): 60%

Cc1c(C(=O)Nc2nnnn2C)ccc(C(C)C)c1S(C)(=O)=O
Activity against AVEFA (Avena fatua [4]; Table S, dosage 5 g/ha): 30% | Activity against ALOMY (Alopecurus myosuroides; Table S, dosage 5 g/ha): 60%

CCc1c(C(=O)Nc2nnnn2C)ccc(C)c1SOC [drawing 67]
Activity against POLCO (Polygonum convolvulus [3]; Table V, dosage 5 g/ha): 60%

CCc1c(C(=O)Nc2nnnn2C)ccc(C)c1S(C)(=O)=O [1-032]
Activity against AVEFA (Avena fatua [1]): 80% | Activity against PHBPU (Pharbitis purpureum): 80%

CCOSc1c(OC)ccc(C(=O)Nc2nnnn2C)c1C [reference compound]
Activity against AVEFA (Avena fatua [4]; dosage 80 g/ha): 20% | Activity against ALOMY (Alopecurus myosuroides; dosage 80 g/ha): 40%

Cc1c(C(=O)Nc2nnnn2C)ccc(S(C)(=O)=O)c1S(C)(=O)=O [drawing 52, reference compound]
Activity against AVEFA (Avena fatua [4]; dosage 5 g/ha): 10% | Activity against ALOMY (Alopecurus myosuroides; dosage 5 g/ha): 30%

Cc1ccc(C(=O)Nc2nnnn2C)c([N+](=O)[O-])c1S(C)(=O)=O [4-797]
Activity against AVEFA (Avena fatua [1]): 0% | Activity against PHBPU (Pharbitis purpureum): 0%

COSc1c(C)ccc(C(=O)Nc2nnnn2C)c1OC
Activity against SETVI (Setaria viridis [6]; dosage 320 g/ha): 40% | Activity against STEME (Stellaria media; dosage 320 g/ha): 60%

CCc1c(C(=O)Nc2nnnn2C)ccc(Cl)c1S(C)(=O)=O [4-192, reference compound]
Activity against PHBPU (Pharbitis purpureum): 80% | Activity against POLCO (Polygonum convolvulus [5]): 60%

Cc1c(C(=O)Nc2nnnn2C)cccc1S(C)(=O)=O [4-080]
Activity against SETVI (Setaria viridis [6]; dosage 80 g/ha): 20% | Activity against STEME (Stellaria media; dosage 80 g/ha): 50%

CCS(=O)(=O)c1c(C)ccc(C(=O)Nc2nnnn2C)c1C [drawing 46, reference compound]
Activity against AVEFA (Avena fatua [4]; dosage 80 g/ha): 20% | Activity against ALOMY (Alopecurus myosuroides; dosage 80 g/ha): 40%

CCc1ccc(C(=O)Nc2nnnn2C)c(C)c1S(C)(=O)=O [1-012]
Activity against SETVI (Setaria viridis [6]; dosage 80 g/ha): 100% | Activity against STEME (Stellaria media; dosage 80 g/ha): 90%

CCc1ccc(C(=O)Nc2nnnn2C)c(CC)c1S(C)(=O)=O [1-042]
Activity against PHBPU (Pharbitis purpureum): 100% | Activity against POLCO (Polygonum convolvulus [5]): 100%

CCc1c(C(=O)Nc2nnnn2C)ccc(Cl)c1S(=O)(=O)CC [drawing 76]
Activity against POLCO (Polygonum convolvulus [3]; Table Y, dosage 20 g/ha): 70%

CCc1c(C(=O)Nc2nnnn2C)ccc(Cl)c1S(=O)(=O)CC [drawing 37, reference compound]
Activity against PHBPU (Pharbitis purpureum): 80% | Activity against POLCO (Polygonum convolvulus [5]): 60%

CCOSc1c(C(F)(F)F)ccc(C(=O)Nc2nnnn2C)c1CC
Activity against POLCO (Polygonum convolvulus [3]; Table X, dosage 20 g/ha): 20%

COc1ccc(C(=O)Nc2nnnn2C)c(C)c1S(C)(=O)=O [4-439]
Activity against SETVI (Setaria viridis [6]; dosage 80 g/ha): 0% | Activity against STEME (Stellaria media; dosage 80 g/ha): 70% | Activity against AVEFA (Avena fatua [1]): 50% | Activity against PHBPU (Pharbitis purpureum): 60%

CCc1ccc(C(=O)Nc2nnnn2C)c(CC)c1S(=O)(=O)CC
Activity against POLCO (Polygonum convolvulus [3]; Table Y, dosage 20 g/ha): 100%
